Legend:
human ETB receptors = target: T1, human ETB receptors (Homo sapiens, UniProt P24530); assay: [125I]ET-3 binding to recombinant human ETB receptors (CHO cell membranes); details: [125I]ET-3; CHO cell membranes with cloned human ETB receptors; read-out: ETB, IC50
T1 construct: expressed in transfected cells; host or cells: CHO cells
T1 sequence (P24530 27-442): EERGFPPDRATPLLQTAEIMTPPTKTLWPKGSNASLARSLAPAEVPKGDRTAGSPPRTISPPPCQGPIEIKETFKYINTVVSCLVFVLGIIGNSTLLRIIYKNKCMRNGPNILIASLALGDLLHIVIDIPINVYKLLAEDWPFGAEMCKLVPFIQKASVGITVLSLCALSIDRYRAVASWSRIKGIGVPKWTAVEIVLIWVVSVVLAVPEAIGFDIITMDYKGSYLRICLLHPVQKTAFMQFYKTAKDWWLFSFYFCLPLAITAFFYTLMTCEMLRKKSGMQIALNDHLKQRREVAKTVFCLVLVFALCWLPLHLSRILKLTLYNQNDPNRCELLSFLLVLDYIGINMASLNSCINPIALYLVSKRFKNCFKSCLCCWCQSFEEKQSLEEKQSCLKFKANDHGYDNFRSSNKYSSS

rat ETA receptors = target: T2, rat ETA receptors (Rattus norvegicus, UniProt P26684); assay: [125I]ET-1 binding, membranes from rat A10 cells
T2 construct: endogenous in cells
T2 sequence (P26684 21-426): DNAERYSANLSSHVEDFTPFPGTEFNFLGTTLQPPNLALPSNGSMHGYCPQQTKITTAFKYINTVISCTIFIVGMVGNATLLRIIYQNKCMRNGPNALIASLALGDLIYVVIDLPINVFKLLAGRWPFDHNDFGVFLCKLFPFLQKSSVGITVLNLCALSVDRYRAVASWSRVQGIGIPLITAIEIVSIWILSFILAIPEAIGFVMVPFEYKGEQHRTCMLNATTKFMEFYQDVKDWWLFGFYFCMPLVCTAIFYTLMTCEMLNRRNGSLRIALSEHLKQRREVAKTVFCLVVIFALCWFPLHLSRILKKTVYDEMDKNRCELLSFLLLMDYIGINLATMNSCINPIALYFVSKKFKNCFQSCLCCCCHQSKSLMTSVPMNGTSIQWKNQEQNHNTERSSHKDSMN
Source text: (§1) Relative binding activities are given below in TABLE 3.

dog ETA receptors = target: T3, dog ETA receptors (Canis lupus familiaris, UniProt Q5KSU9); assay: [125I]ET-1 binding, membranes from dog cardiac ventricle
T3 construct: from tissue
T3 sequence (Q5KSU9 21-426): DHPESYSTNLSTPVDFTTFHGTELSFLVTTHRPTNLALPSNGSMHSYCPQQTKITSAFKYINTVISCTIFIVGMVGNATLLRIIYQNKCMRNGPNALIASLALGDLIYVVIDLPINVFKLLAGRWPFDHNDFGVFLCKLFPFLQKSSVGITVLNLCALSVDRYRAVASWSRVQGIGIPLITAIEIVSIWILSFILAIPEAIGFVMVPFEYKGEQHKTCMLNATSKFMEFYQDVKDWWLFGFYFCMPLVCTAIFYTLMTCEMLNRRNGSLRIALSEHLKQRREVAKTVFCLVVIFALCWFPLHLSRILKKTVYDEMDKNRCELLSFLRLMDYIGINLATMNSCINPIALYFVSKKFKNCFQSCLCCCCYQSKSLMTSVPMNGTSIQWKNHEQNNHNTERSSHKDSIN
Source text: as §1

[1] = test system: bET-1 pressor response (ETA receptors); assay: Blockade of bET-1 induced pressor responses in rats; type: in vivo, rat
Source text: Vehicle-treated rats responded to the bET-1 challenge with peak increases in mean arterial pressure (MAP) of 58±2 mm Hg (N=7); baseline MAP was 82±5 mm Hg.

[2] = test system: chronic hypoxia-induced pulmonary hypertension and RV hypertrophy; assay: Pulmonary hypertension and right ventricular hypertrophy in rats exposed to chronic hypoxia; type: in vivo, rat; details: for average MPAP: hypoxic rats, days 10-20 of hypoxia
Source text: Rats were exposed to hypoxia for an additional 10 days during treatment (20 days total). A separate group of age-matched rats treated with diet alone (20 days) and no exposure to hypoxia served as normoxic controls. Blood samples, pulmonary artery pressures, and cardiac right and left ventricles were collected at the end of the 20-day protocol.
Rats exposed to 20 days of hypoxia had MPAP of 43±2 mm Hg which averaged 30 mm Hg higher than normal (13±0 mm Hg).
Heparinized plasma samples were collected approximately 1 hour before MPAP was measured.
The right ventricular hypertrophic response to hypoxia was estimated by comparing the ratio of right ventricular free wall weight to left ventricle plus septum weight (RV/LV+S) between hypoxic and normoxic control groups. Using this index, rats exposed to hypoxia had right ventricular free walls that were more than twice control (0.57±0.03 versus 0.24±0.1).

[3] = Dissociation constant by potentiometric titration in water; type: physicochemical; details: carboxylic acid group, read-out: apparent pKa
[4] = Octanol-aqueous partition coefficient, shake-flask method with HPLC; type: physicochemical
Protocol: Partition Coefficient: The octanol-aqueous partition coefficient at various pH values was determined by the shake-flask method using HPLC for measurement of the amount of compound in each phase.

[5] = Thermal properties, hygroscopicity and stability; type: physicochemical
[6] = test system: rat, dog, monkey, and human hepatocyte preparations; assay: Incubations with hepatocyte preparations; type: in vitro ADME; details: monkey, and human hepatocytes
[7] = Food effect (high-fat meal) single-dose study in healthy subjects; type: in vivo, human; details: for Tmax: human, plasma, oral, 150 mg

Q: Which IC50 (human ETB receptors) does the source give for CCc1cc(C2=C(C(=O)[O-])N(c3ccccc3C(F)(F)F)S(=O)(=O)c3ccccc32)cc2c1OCO2.[K+] [CI-1034, 4-(7-Ethyl-1,3-benzodioxol-5-yl)-2-[2-(trifluoromethyl)phenyl]-2H-1 ,2-benzothiazine-3-carboxylic acid 1,1-dioxide monopotassium salt] here?
A: 1600 nM

Q: And the IC50 (rat ETA receptors)?
A: 3.3 nM

Q: What about the IC50 (dog ETA receptors) of the same compound?
A: 2 nM

Q: What about the “peak pressor response to bET-1 challenge (MAP increase)” value ([1]; 30 mg/kg oral gavage 24 hours before bET-1 1 nmol/kg IV) of the same compound?
A: 35±7 mm Hg

Q: And the “inhibition of the bET-1 pressor response compared to vehicle” value ([1]; 30 mg/kg oral gavage 24 hours before challenge, p<0.05)?
A: 39%

Q: And the EC50 ([2]; Rattus norvegicus, simple Emax model, chronic hypoxia, read-out: plasma concentration predicted to produce half-maximal effect)?
A: 0.32 ± 0.25 µg/mL

Q: What about the “average MPAP” value ([2]; 25 mg/kg/day in diet) of the same compound?
A: 37±2 mm Hg

Q: What about the “average MPAP” value ([2]; 50 mg/kg/day in diet) of the same compound?
A: 33±0 mm Hg

Q: What about the “average MPAP” value ([2]; 100 mg/kg/day in diet) of the same compound?
A: 29±2 mm Hg

Q: What about the “predicted maximal antihypertensive effect” value ([2]; simple Emax model, chronic hypoxia) of the same compound?
A: 60%±18%

Q: What about the pKa [3] of the same compound?
A: 3.9

Q: And the logD ([4]; pH 1, 0.1N Hydrochloric Acid)?
A: 3.24

Q: And the logD ([4]; pH 4, 0.05 M Sodium Acetate Buffer)?
A: 2.93

Q: And the logD ([4]; pH 7.4, 0.05 M Potassium Phosphate Buffer)?
A: 0.56

Q: What about the Hygroscopicity [5] of the same compound?
A: Hygroscopicity: CI-1034 is moderately hygroscopic.

Q: What about the Stability on storage ([5]; 4 weeks at 80° C. or 40° C. and 70% relative humidity) of the same compound?
A: CI-1034 was stable for 4 weeks when stored at 80 °C or 40 °C and 70% relative humidity. CI-1034 does not need special storage requirements, other than the usual protection from light.

Q: What about the “thermally stable up to” value ([5]; begins to melt with decomposition) of the same compound?
A: Thermal Properties: CI-1034 is thermally stable up to approximately 300° C., where it begins to melt with decomposition.

Q: And the Stability ([5]; exposed to hydrogen peroxide)?
A: No significant degradation

Q: What about the Stability ([5]; exposed to simulated sunlight) of the same compound?
A: # peroxide. In contrast, samples exposed to simulated sunlight showed degradation.

Q: And the Stability ([5]; heated in acid, base, or water, protected from light)?
A: stable

Q: And the “metabolic profiles across species” value [6]?
A: qualitatively similar metabolic profiles

Q: And the Tmax ([7]; fasted state)?
A: 1.26 h

Q: And the Tmax ([7]; with high-fat meal)?
A: 3.5 h

Q: What about the “mean AUC(0-∞) lower with high-fat breakfast versus fasted” value ([7]; single dose) of the same compound?
A: approximately 16%

Q: And the “mean Cmax lower with high-fat breakfast versus fasted” value ([7]; single dose)?
A: approximately 50%

Source: patent US20020115661A1, “Method for treating chronic obstructive pulmonary disease” (priority 2000, published 2002)
